biological target: benzodiazepine modulatory unit (GABAA receptor complex); assay: In vitro inhibition of 3H-flunitrazepam (3H-FNM) binding; set-up: species or system rat; conditions: inhibition of specific binding of 3H-FNM (1 nM); cerebral cortex membranes from male Wistar rats; 40 min at 2° C.
Method: In vitro inhibition of ^3H-flunitrazepam (^3H-FNM) binding
The GABA recognition site and the benzodiazepine modulatory unit can selectively be labelled with ^3H-flunitrazepam.
Preparations are performed at 0-4° C. unless otherwise indicated. Cerebral cortex from male Wistar rats (150-200 g) is homogenised for 5-10 sec in 20 ml Tris-HCl (30 mM, pH 7.4) using an Ultra-Turrax homogeniser. The suspension is centrifuged at 27,000×g for 15 min and the pellet is washed three times with buffer (centrifuged at 27,000×g for 10 min). The washed pellet is homogenized in 20 ml of buffer and incubated on a water bath (37° C.) for 30 min to remove endogenous GABA and then centrifuged for 10 min at 27,000×g. The pellet is then homogenized in buffer and centrifuged for 10 min at 27,000×g. The final pellet is resuspended in 30 ml buffer and the preparation is frozen and stored at −20° C.
The membrane preparation is thawed and centrifuged at 2° C. for 10 min at 27,000×g. The pellet is washed twice with 20 ml 50 mM Tris-citrate, pH 7.1 using an Ultra-Turrax homogeniser and centrifuged for 10 min at 27,000×g. The final pellet is resuspended in 50 mM Tris-citrate, pH 7.1 (500 ml buffer per g of original tissue), and then used for binding assays. Aliquots of 0.5 ml tissue are added to 25 μl of test solution and 25 μl of ^3H-FNM (1 nM, final concentration), mixed and incubated for 40 min at 2° C. Non-specific binding is determined using Clonazepam (1 μM, final concentration). After incubation the samples are added 5 ml of ice-cold buffer and poured directly onto Whatman GF/C glass fibre filters under suction and immediately washed with 5 ml ice-cold buffer. The amount of radioactivity on the filters is determined by conventional liquid scintillation counting. Specific binding is total binding minus non-specific binding.
25-75% inhibition of specific binding must be obtained, before calculation of an IC50.
The test value will be given as IC50 (the concentration (μM) of the test substance which inhibits the specific binding of ^3H-FNM by 50%).

Row | IC50 [nM] | Structure (SMILES)
1 | 800 | Nc1cccc(-c2cn(-c3cccc(-c4ccccc4)c3)cn2)c1 [1-Biphenyl-3-yl-4-(3-amino-phenyl)-1H-imidazole]
2 | 460 | COc1ccc(-c2cn(-c3cccc(-c4ccccc4)c3)cn2)cc1 [1-Biphenyl-3-yl-4-(4-methoxy-phenyl)-1H-imidazole]
3 | 100 | N#Cc1cccc(-n2cnc(-c3ccccc3)c2)c1 [3-(4-Phenyl-imidazol-1-yl)-benzonitrile]
